Measurements published in ChEMBL document CHEMBL1201862, “PubChem BioAssay data set” (2004).
Active and inactive are the calls of the source.

Assays:
Interleukin-8 [1] = molecular target: T1, Interleukin-8 (Homo sapiens, UniProt P10145); experiment: Dose Response confirmation of uHTS small molecule hits for cystic fibrosis induced NFkb Inhibitors in a TNFa-induced IL8 counterscreen.; format: functional; conditions: read-out: IC50_Mean
T1 sequence (P10145 whole entry): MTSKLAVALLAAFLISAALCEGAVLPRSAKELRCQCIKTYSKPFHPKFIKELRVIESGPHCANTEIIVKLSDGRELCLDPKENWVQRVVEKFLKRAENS

Paired box protein Pax-8 = Paired box protein Pax-8 (Homo sapiens, UniProt Q06710); experiment: PAX8 transcriptional activity inhibition in RMG-I – RMG-I cells, luciferase, cherry-pick, dose response (AID 687027); format: functional, cell-based;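 also: luciferase reporter driven by Pax8 target thyroperoxidase promoter measured by SteadyGlo luminescence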
Sequence of Paired box protein Pax-8 (Q06710 whole entry): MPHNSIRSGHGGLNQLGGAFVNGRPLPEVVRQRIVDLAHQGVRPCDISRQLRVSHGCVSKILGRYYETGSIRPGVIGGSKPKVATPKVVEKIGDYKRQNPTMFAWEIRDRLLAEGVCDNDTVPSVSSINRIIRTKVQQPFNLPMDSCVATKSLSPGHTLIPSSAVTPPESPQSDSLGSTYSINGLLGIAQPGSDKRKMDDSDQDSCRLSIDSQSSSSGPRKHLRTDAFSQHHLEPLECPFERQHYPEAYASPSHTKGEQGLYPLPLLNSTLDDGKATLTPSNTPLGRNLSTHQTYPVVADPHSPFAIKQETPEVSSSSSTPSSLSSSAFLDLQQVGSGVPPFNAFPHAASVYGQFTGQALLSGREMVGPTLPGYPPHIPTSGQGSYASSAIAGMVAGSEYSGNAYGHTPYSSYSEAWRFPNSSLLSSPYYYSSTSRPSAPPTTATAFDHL

Vero = experiment: viability of Vero cells under compound – cytotoxicity control for flavivirus capping enzyme inhibitors (AID 588742); format: functional; conditions: Chlorocebus sabaeus
HEK293 = experiment: EBV LMP1 TES2 canonical NF-kB signalling blockers – cell-based, HEK293, luciferase, cherry-pick, dose response (AID 588343); format: functional; conditions: Homo sapiens
[2] = Fluorescence-based cell-based high throughput dose response assay for inhibitors of the interaction of nucleotide-binding oligomerization domain containing 2 (NOD2) and the receptor-interacting serine-threonine kinase 2 (RIPK2).; format: functional; conditions: Homo sapiens
Interleukin-8 [3] = molecular target: T1, Interleukin-8; experiment: Dose Response confirmation of uHTS small molecule hits for cystic fibrosis induced NFkb Inhibitors in a PAF-induced IL8 counterscreen.; format: functional; conditions: read-out: IC50_Mean
cells = format: functional, cell-based; conditions: HEK-CNG
[4] = EF1alpha-driven Renilla reporter with control 3'UTR suppression – Clone20-Shn3RL cells, dual-Glo, cherry-pick, set 2, counter-screen for Shn3 3'UTR targeting project, dose response (AID 720724); format: functional, cell-based; conditions: Dual-Go Shn3RL
Galanin receptor type 3 = Galanin receptor type 3 (Homo sapiens, UniProt O60755); experiment: Fluorescence-based cell-based primary high throughput dose response assay to identify antagonists of the Galanin Receptor 3 (GalR3).; format: functional
Sequence of Galanin receptor type 3 (O60755 whole entry): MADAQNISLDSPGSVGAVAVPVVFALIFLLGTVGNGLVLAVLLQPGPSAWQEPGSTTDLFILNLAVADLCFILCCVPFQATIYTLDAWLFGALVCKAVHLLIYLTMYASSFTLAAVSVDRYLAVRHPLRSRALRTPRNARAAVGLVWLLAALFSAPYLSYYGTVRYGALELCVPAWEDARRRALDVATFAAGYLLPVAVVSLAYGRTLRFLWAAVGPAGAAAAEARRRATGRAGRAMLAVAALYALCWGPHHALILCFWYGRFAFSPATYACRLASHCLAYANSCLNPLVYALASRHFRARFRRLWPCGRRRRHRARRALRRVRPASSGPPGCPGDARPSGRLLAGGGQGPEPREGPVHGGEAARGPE

[5] = loss of viability in HepG2 cells – cell-based, CellTiter-Glo, cherry-picked, cytotoxicity control for Shn3 inhibitor project, dose response (AID 624134); format: functional
[6] = Shn3 3'UTR reporter signal decrease – cell-based, Clone20 osteoblasts, firefly luciferase, cherry-pick, set 2, Schnurri-3 inhibitor project, dose response (AID 720490); format: functional;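 also: actives lower the luminescence signal as inhibitors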
[7] = non-specific 3'UTR reporter inhibition in Clone20-Shn3RL – cell-based, Renilla luciferase, cherry-picked, counter-screen for Shn3 inhibitor project, dose response (AID 624133); format: functional
[8] = reduction of Shn3 3'UTR-driven luciferase in osteoblasts – cell-based, Clone20 osteoblasts, firefly luciferase, cherry-picked, dose response (AID 624132); format: functional;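 also: firefly luciferase luminescence from reporter carrying the Shn3 3'UTR in osteoblasts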
[9] = Counterscreen for activators of the function of SWI/SNF related, matrix associated, actin dependent regulator of chromatin, subfamily a, member 2 (SMARCA2, BRM): Luminescence-based cell-based high throughput dose response assay to identify non-selective compounds using the VP16 reporter assay.; format: functional
Mu-type opioid receptor = Mu-type opioid receptor (Homo sapiens, UniProt P35372); experiment: (§1) Counterscreen for agonists of heterodimerization of the mu 1 (OPRM1) and delta 1 (OPRD1) opioid receptors: Luminescence-based cell-based high throughput dose response assay to identify agonists of OPRM1 homodimerization.; format: functional
Sequence of Mu-type opioid receptor (P35372 whole entry): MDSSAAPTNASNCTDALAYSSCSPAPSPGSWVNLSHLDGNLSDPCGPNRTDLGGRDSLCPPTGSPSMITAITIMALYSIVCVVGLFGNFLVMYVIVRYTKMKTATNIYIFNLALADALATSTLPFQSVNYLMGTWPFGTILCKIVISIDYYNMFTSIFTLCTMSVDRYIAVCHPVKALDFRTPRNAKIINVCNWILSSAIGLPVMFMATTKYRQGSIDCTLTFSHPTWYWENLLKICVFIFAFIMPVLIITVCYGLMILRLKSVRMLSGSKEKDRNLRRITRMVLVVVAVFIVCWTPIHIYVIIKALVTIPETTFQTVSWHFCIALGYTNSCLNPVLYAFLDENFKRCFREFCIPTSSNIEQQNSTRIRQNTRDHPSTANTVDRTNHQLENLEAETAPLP

[10] = molecular target: Delta-type opioid receptor (Homo sapiens, UniProt P41143); experiment: as §1, with “of OPRD1” for “of OPRM1”, “homodimerization. [Related pubchem assays (depositor defined):AID504326, AID504355, AID504692, AID504904, AID504905]” for “homodimerization.”; format: functional
Sequence of Delta-type opioid receptor (P41143 whole entry): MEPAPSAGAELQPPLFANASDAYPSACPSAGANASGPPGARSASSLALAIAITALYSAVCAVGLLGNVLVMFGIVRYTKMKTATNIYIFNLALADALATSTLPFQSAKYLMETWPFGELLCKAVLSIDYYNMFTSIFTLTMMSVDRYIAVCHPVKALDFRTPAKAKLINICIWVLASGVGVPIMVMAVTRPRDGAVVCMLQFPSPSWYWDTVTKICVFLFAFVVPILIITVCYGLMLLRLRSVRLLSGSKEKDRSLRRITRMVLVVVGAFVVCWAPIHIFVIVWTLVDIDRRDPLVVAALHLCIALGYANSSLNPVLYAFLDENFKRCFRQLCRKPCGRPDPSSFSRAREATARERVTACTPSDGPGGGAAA

[11] = molecular target: 5-hydroxytryptamine receptor 5A (Homo sapiens, UniProt P47898); experiment: Counterscreen for agonists of OPRM1-OPRD1 heterodimerization: luminescence-based cell-based high throughput dose response assay to identify agonists of 5-hydroxytryptamine (serotonin) 5A receptor (HTR5A). [Related pubchem assays (depositor defined):AID504326, AID504355, AID504692, AID504904, AID504905]; format: functional
Sequence of 5-hydroxytryptamine receptor 5A (P47898 whole entry): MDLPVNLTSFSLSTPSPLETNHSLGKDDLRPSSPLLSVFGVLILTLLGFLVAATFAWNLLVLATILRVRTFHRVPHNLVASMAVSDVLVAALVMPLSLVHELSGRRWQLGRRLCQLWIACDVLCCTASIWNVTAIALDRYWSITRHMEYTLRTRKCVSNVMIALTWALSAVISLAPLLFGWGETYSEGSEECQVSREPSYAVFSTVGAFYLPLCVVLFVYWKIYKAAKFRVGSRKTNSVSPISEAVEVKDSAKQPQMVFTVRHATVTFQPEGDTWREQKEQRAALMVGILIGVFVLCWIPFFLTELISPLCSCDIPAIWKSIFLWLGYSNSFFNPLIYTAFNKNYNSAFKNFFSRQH

[12] = molecular target: SWI/SNF-related matrix-associated actin-dependent regulator of chromatin subfamily A member 2 (Homo sapiens, UniProt P51531); experiment: Luminescence-based cell-based high throughput dose response assay to identify activators of the function of SWI/SNF related, matrix associated, actin dependent regulator of chromatin, subfamily a, member 2 (SMARCA2, BRM).; format: functional
Sequence of SWI/SNF-related matrix-associated actin-dependent regulator of chromatin subfamily A member 2 (P51531 whole entry): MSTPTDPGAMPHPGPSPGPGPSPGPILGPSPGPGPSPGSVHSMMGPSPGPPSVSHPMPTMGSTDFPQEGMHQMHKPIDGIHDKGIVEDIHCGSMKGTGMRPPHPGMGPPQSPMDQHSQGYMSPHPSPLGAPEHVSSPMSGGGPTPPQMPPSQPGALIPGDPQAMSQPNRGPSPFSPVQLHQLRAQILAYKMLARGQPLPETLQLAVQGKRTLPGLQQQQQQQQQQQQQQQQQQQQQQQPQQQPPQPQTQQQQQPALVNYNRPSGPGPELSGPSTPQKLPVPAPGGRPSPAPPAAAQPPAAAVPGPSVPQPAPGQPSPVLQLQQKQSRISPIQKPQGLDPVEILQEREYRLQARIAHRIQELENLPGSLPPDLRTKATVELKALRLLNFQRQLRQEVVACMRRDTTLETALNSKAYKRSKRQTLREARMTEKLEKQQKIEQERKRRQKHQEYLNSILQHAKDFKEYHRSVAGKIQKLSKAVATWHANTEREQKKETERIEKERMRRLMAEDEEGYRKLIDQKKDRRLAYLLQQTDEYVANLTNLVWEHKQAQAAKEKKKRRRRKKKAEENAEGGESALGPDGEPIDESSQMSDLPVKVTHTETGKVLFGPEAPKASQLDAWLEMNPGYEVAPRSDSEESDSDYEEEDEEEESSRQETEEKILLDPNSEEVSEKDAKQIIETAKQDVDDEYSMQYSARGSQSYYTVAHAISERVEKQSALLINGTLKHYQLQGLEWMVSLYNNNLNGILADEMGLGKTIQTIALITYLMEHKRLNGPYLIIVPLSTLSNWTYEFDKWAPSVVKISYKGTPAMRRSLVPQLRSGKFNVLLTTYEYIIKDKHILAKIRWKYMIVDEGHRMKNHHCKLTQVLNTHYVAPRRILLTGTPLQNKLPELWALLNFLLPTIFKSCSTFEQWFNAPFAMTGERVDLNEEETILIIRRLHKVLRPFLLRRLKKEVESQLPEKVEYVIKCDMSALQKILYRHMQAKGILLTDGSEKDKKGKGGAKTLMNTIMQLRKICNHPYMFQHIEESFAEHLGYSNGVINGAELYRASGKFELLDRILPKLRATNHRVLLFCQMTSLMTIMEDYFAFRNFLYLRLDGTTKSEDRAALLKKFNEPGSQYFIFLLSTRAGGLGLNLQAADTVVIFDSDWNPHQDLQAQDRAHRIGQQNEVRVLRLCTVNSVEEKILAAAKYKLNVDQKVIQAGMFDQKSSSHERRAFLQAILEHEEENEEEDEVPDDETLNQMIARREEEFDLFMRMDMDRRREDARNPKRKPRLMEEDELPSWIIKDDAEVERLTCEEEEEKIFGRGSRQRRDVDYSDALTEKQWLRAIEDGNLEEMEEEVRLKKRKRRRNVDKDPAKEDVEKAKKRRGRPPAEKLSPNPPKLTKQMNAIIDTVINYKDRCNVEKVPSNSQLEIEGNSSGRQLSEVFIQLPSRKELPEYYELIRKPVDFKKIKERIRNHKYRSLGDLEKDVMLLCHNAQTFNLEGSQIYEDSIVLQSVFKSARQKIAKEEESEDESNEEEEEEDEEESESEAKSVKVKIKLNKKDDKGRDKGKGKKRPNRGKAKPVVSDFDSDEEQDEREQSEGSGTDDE

Beta-galactosidase = Beta-galactosidase (Escherichia coli, UniProt Q8VNN2); experiment: Dose response counterscreen for EBI2 assay utilizing the enzyme, b-galactosidase.; format: functional
Sequence of Beta-galactosidase (Q8VNN2 whole entry): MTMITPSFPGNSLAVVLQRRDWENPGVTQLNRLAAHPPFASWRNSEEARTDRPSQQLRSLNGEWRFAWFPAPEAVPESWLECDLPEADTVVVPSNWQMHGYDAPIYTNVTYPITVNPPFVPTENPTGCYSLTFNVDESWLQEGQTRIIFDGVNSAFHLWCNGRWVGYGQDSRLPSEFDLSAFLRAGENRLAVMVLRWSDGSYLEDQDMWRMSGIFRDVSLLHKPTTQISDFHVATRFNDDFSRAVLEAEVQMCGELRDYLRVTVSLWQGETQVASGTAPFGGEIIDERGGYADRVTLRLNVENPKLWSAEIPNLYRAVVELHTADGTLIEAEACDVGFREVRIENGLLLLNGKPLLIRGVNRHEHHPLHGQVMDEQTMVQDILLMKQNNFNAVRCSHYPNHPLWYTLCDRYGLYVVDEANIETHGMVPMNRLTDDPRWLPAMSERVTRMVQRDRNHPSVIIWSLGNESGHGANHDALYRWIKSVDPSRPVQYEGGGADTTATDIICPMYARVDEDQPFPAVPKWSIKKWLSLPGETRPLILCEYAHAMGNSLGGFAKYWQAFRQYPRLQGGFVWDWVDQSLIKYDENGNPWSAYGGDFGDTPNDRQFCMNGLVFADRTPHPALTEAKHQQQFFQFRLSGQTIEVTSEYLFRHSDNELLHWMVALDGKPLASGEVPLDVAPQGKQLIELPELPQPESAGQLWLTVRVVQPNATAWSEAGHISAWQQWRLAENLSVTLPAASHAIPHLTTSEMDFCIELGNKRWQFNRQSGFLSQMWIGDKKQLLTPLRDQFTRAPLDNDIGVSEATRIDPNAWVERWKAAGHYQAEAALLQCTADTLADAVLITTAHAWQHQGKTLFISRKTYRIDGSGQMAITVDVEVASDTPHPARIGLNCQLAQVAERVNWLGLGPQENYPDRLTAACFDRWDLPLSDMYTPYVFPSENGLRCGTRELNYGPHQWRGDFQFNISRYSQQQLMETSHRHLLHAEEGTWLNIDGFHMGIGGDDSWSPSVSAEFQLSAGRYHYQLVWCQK

[13] = molecular target: T2, Low molecular weight phosphotyrosine protein phosphatase (Homo sapiens, UniProt P24666); format: functional; conditions: read-out: IC50_Mean
T2 sequence (P24666 whole entry): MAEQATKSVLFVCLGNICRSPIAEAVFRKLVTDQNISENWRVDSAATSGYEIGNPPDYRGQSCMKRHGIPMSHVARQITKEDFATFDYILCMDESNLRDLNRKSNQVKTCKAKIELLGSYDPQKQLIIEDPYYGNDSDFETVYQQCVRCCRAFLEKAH

[14] = molecular target: T2, Low molecular weight phosphotyrosine protein phosphatase; format: functional; conditions: read-out: IC50_Mean; remark: listed apart in the source
[15] = molecular target: Potassium channel subfamily K member 9 (Homo sapiens, UniProt Q9NPC2); experiment: KCNK9 flux blockade, concentration-response – cell-based, FluxOR thallium flux, selectivity assay for TASK1 inhibitor project, SAR follow-up (AID 652211); format: functional;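 also: potency is for inhibitors of the channel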
Sequence of Potassium channel subfamily K member 9 (Q9NPC2 whole entry): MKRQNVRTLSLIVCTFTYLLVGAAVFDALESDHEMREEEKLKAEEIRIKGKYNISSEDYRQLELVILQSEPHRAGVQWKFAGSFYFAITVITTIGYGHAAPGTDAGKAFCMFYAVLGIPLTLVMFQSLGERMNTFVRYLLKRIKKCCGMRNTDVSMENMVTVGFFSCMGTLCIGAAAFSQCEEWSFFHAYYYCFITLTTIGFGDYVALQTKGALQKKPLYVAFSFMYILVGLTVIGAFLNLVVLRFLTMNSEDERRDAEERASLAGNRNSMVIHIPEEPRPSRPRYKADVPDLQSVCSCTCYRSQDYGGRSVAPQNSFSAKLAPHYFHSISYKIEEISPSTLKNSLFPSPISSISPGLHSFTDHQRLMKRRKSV

In the case of `CC(=O)OC1CCC2(C)C(CCC3C4CC=C(C(C)=O)C4(C)OC(=O)CC32)C1` (stereo not given), the IC50 (Interleukin-8 [1]) is reported as 1.12 µM (active), the AC50 (Paired box protein Pax-8) is reported as 6.49 µM (active) and the CC50 (Vero) is reported as 34.9 µM (active). The AC50 (HEK293) was 1.65 µM (active), the IC50 [2] was 5.12 µM (active) and the IC50 (Interleukin-8 [3]) was 0.338 µM (active).
With `Cc1ccnc(SCC(=O)Nc2sc3c(c2C#N)CCCC3)n1` the EC50 (cells) was > 29.9 µM (inactive), the AC50 [4] was 11.9 µM (active) and the IC50 (Galanin receptor type 3) was > 1.11 µM (active). The AC50 [5] was 66.8 µM (active), the AC50 [6] was 1.18 µM (active) and the AC50 [7] was 5 µM (active). The AC50 [8] was 0.955 µM (active).
For `CN1CCN(Cc2nc3ccccc3c(=O)n2Cc2nc(-c3ccc4ccccc4c3)cs2)CC1`, the EC50 [9] was > 91.2 µM (inactive), the AC50 [5] was 8.34 µM (active) and the EC50 (Mu-type opioid receptor) was > 92.5 µM (inactive). For the same compound, the EC50 [10] was > 92.5 µM (inactive), the AC50 [7] was 11.7 µM (active) and the EC50 [11] was > 92.5 µM (inactive). For the same compound, the EC50 [12] was > 91.2 µM (inactive) and the AC50 [8] was 11 µM (active).
With `O=C(c1cc2cc(Br)ccc2[nH]1)N1CCC2(CC1)OCCO2` the IC50 (Beta-galactosidase) was > 80 µM (inactive).
With `O=C(/C=C\Nc1ccc2c(c1)OCO2)c1ccc(Cl)s1` the IC50 [13] was 19.9 µM (active) and the IC50 [14] was > 80 µM (inactive).
With `Cc1cccc(C(=O)Nc2cccc(NC(=O)c3ccccc3C(C)C)c2)c1` the IC50 [15] was 2.39 µM (active).
